{"source": "patent US10166216B2", "about": "(Rigel Pharmaceuticals, Inc., priority 2006, dated 2019)"}
{"target": "Axl (Homo sapiens (Human), UniProt P30530)", "sequence (P30530 26-894)": "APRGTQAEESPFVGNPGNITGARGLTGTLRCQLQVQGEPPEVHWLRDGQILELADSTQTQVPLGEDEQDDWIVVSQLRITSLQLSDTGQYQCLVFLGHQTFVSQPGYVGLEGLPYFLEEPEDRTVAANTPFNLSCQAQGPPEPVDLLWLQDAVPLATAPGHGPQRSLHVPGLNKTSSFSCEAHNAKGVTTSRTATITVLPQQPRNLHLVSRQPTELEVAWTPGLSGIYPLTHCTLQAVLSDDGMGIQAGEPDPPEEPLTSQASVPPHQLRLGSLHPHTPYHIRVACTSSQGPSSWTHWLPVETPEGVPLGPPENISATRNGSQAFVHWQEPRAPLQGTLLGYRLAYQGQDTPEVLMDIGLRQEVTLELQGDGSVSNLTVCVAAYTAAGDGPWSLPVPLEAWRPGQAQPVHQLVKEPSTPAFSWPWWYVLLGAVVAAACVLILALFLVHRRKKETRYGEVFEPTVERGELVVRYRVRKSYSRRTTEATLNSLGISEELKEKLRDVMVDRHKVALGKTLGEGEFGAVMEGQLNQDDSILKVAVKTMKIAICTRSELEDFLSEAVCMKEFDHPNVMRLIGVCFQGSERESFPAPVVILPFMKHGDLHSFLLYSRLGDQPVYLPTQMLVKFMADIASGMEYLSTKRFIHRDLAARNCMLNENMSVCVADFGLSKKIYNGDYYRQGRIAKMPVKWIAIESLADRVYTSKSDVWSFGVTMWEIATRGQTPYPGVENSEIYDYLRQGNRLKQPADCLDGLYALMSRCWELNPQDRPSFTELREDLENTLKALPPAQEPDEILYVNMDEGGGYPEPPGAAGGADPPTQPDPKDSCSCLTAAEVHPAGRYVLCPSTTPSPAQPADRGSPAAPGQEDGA", "assay": "Phospho-Akt in-cell Western assay (Axl-antibody cross-linking stimulation)", "format": "cell-based", "conditions": "inhibition of Axl activity, Hela cells, phospho-Akt readout; Table 4, formula (Ib2)", "procedure,_shortened": "(§1)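 HeLa cells on poly-L-lysine, starved 24 hrs with Axl/Fc, pre-treated with compound 1 hr at 37° C., then stimulated 5 min with Axl primary/secondary antibody cluster. Fixed cells probed for phospho-Akt by chemiluminescent in-cell Western; signal normalized to crystal violet cell number.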", "units": {"IC50": "nM"}}
{"smiles": "Nc1nc(Nc2ccc(N3CCN(C4CCCC4)CC3)c(F)c2)n(-c2nc3ccccc3c3ccccc23)n1", "note": "[Compound 205, 1-(phenanthridin-6-yl)-N^5-(3-fluoro-4-(4-cyclopentylpiperazin-1-yl)phenyl)-1H-1,2,4-triazole-3,5-diamine]", "IC50": "< 1000"}
{"target": "Axl (Homo sapiens (Human), UniProt P30530)", "assay": "Phospho-Akt in-cell Western assay (Axl-antibody cross-linking stimulation)", "format": "cell-based", "conditions": "inhibition of Axl activity, Hela cells, phospho-Akt readout; Table 5, formula (Ia3)", "procedure,_shortened": "as §1", "units": {"IC50": "nM"}}
{"smiles": "COc1cc2ncnc(-n3nc(Nc4ccc(C(=O)N5CCN(C6CCCC6)CC5)cc4)nc3N)c2cc1OC", "note": "[Compound 206, 1-(6,7-dimethoxyquinazolin-4-yl)-N^3-(4-(4-(cyclopentyl)piperazin-1-ylcarbonyl)phenyl)-1H-1,2,4-triazole-3,5-diamine]", "IC50": "< 1000"}
{"smiles": "Cc1csc2c(-n3nc(Nc4ccc(C(=O)N5CCN(C6CCCC6)CC5)cc4)nc3N)ncnc12", "note": "[Compound 207, 1-(7-methylthieno[3,2-d]pyrimidin-4-yl)-N^3-(4-(4-(cyclopentyl)piperazin-1-ylcarbonyl)phenyl)-1H-1,2,4-triazole-3,5-diamine]", "IC50": "< 1000"}
{"smiles": "Cc1csc2c(-n3nc(Nc4ccc(C(=O)NCCN5CCCC5)cc4)nc3N)nc(Cl)nc12", "note": "[Compound 208, 1-(7-methyl-2-chlorothieno[3,2-d]pyrimidin-4-yl)-N^3-(4-((2-(pyrrolidin-1-yl)ethyl)aminocarbonyl)phenyl)-1H-1,2,4-triazole-3,5-diamine]", "IC50": "< 1000"}
{"smiles": "COc1cc2ncnc(-n3nc(Nc4ccc(N5CCC(N6CCCCC6)CC5)c(F)c4)nc3N)c2cc1OC", "note": "[Compound 209, 1-(6,7-dimethoxyquinazolin-4-yl)-N^3-(3-fluoro-4-(4-piperidin-1-ylpiperidin-1-yl)phenyl)-1H-1,2,4-triazole-3,5-diamine]", "IC50": "< 1000"}
{"smiles": "Cc1csc2c(-n3nc(Nc4ccc(N5CCC(N6CCCCC6)CC5)c(F)c4)nc3N)nc(Cl)nc12", "note": "[Compound 210, 1-(7-methyl-2-chlorothieno[3,2-d]pyrimidin-4-yl)-N^3-(3-fluoro-4-(4-piperidin-1-ylpiperidin-1-yl)phenyl)-1H-1,2,4-triazole-3,5-diamine]", "IC50": "< 1000"}
{"smiles": "CCN(CC)C1CCN(c2ccc(Nc3nc(N)n(-c4nc(Cl)nc5c(C)csc45)n3)cc2F)C1", "note": "(stereo not drawn) [Compound 211, 1-(7-methyl-2-chlorothieno[3,2-d]pyrimidin-4-yl)-N^3-(3-fluoro-4-(3-diethylaminopyrrolidin-1-yl)phenyl)-1H-1,2,4-triazole-3,5-diamine]", "IC50": "< 1000"}
{"smiles": "CN1CCC(c2ccc(Nc3nc(N)n(-c4nc5ccccc5c5ccccc45)n3)cc2)CC1", "note": "[Compound 213, 1-(phenanthridin-6-yl)-N^3-(4-(1-methylpiperidin-4-yl)phenyl)-1H-1,2,4-triazole-3,5-diamine]", "IC50": "< 1000"}
{"smiles": "Cc1cc(Nc2nc(N)n(-c3nc4ccccc4c4ccccc34)n2)ccc1N1CCC(N2CCCC2)CC1", "note": "[Compound 214, 1-(phenanthridin-6-yl)-N^3-(3-methyl-4-(4-pyrrolidin-1-ylpiperidin-1-yl)phenyl)-1H-1,2,4-triazole-3,5-diamine]", "IC50": "< 1000"}
{"smiles": "COc1cc2ncnc(-n3nc(Nc4ccc(N5Cc6ccccc6C5)c(F)c4)nc3N)c2cc1OC", "note": "[Compound 216, 1-(6,7-dimethoxyquinazolin-4-yl)-N^3-(3-fluoro-4-(isoindolin-2-yl)phenyl)-1H-1,2,4-triazole-3,5-diamine]", "IC50": "> 20000"}
{"target": "Axl (Homo sapiens (Human), UniProt P30530)", "assay": "Phospho-Akt in-cell Western assay (Axl-antibody cross-linking stimulation)", "format": "cell-based", "conditions": "inhibition of Axl activity, phospho-Akt in-cell Western assay", "procedure,_shortened": "as §1", "units": {"IC50": "nM"}}
{"smiles": "COc1cc2cnc(-n3nc(Nc4ccc(N5CCN(C6CCCCC6)CC5)c(F)c4)nc3N)nc2cc1OC", "note": "[Compound 181, 1-(6,7-dimethoxyquinazolin-2-yl)-N^3-(3-fluoro-4-(4-cyclohexylpiperazin-1-yl)phenyl)-1H-1,2,4-triazole-3,5-diamine]", "IC50": "< 1000"}
{"smiles": "Nc1nc(Nc2ccc(N3CCN(C4CC5CCC4C5)CC3)cc2)nn1-c1ncnc2c1sc1ncccc12", "note": "(stereo not drawn) [Compound 184, 1-(pyrido[2,3-b]pyrimido[4,5-d]thiophene-4-yl)-N^3-(4-(4-(bicyclo[2.2.1]heptan-2-yl)-piperazin-1-yl)phenyl)-1H-1,2,4-triazole-3,5-diamine]", "IC50": "< 1000"}
{"smiles": "Nc1nc(Nc2ccc(N3CCN(C4CC5CCC4C5)CC3)cc2)nn1-c1ncnc2scc(-c3cccs3)c12", "note": "(stereo not drawn) [Compound 185, 1-(5-(thiophen-2-yl)thieno[2,3-d]pyrimidin-4-yl)-N^3-(4-(4-(bicyclo[2.2.1]heptan-2-yl)-piperazin-1-yl)phenyl)-1H-1,2,4-triazole-3,5-diamine]", "IC50": "> 20000"}
{"smiles": "Nc1nc(Nc2ccc(N3CCN(C4CC5CCC4C5)CC3)cc2)nn1-c1ncnc2cc(-c3ccc(Cl)cc3)sc12", "note": "(stereo not drawn) [Compound 186, 1-(6-(4-chlorophenyl)thieno[3,2-d]pyrimidin-4-yl)-N^3-(4-(4-(bicyclo[2.2.1]heptan-2-yl)-piperazin-1-yl)phenyl)-1H-1,2,4-triazole-3,5-diamine]", "IC50": "> 20000"}
{"smiles": "CC(C)(C)c1cc2ncnc(-n3nc(Nc4ccc(N5CCN(C6CC7CCC6C7)CC5)cc4)nc3N)c2s1", "note": "(stereo not drawn) [Compound 187, 1-(6-(1,1-dimethylethyl)thieno[3,2-d]pyrimidin-4-yl)-N^3-(4-(4-(bicyclo[2.2.1]heptan-2-yl)-piperazin-1-yl)phenyl)-1H-1,2,4-triazole-3,5-diamine]", "IC50": "< 1000"}
{"smiles": "Cc1csc2c(-n3nc(Nc4ccc(N5CCN([C@H]6C[C@@H]7CC[C@H]6C7)CC5)cc4)nc3N)ncnc12", "note": "[Compound 188, 1-(7-methylthieno[3,2-d]pyrimidin-4-yl)-N^3-(4-(4-((1S,2S,4R)-bicyclo[2.2.1]heptan-2-yl)-piperazin-1-yl)phenyl)-1H-1,2,4-triazole-3,5-diamine]", "IC50": "< 1000"}
{"smiles": "Nc1nc(Nc2ccc(N3CCN([C@H]4C[C@@H]5CC[C@H]4C5)CC3)cc2)nn1-c1ncnc2ccsc12", "note": "[Compound 189, 1-(thieno[3,2-d]pyrimidin-4-yl)-N^3-(4-(4-((1S,2S,4R)-bicyclo[2.2.1]heptan-2-yl)-piperazin-1-yl)phenyl)-1H-1,2,4-triazole-3,5-diamine]", "IC50": "< 1000"}
{"smiles": "Nc1nc(Nc2ccc(N3CCN([C@H]4C[C@@H]5CC[C@H]4C5)CC3)cc2)nn1-c1ncnc2sccc12", "note": "[Compound 190, 1-(thieno[2,3-d]pyrimidin-4-yl)-N^3-(4-(4-((1S,2S,4R)-bicyclo[2.2.1]heptan-2-yl)-piperazin-1-yl)phenyl)-1H-1,2,4-triazole-3,5-diamine]", "IC50": "< 1000"}
{"smiles": "Cc1csc2ncnc(-n3nc(Nc4ccc(N5CCN([C@H]6C[C@@H]7CC[C@H]6C7)CC5)cc4)nc3N)c12", "note": "[Compound 191, 1-(5-methylthieno[2,3-d]pyrimidin-4-yl)-N^3-(4-(4-((1S,2S,4R)-bicyclo[2.2.1]heptan-2-yl)-piperazin-1-yl)phenyl)-1H-1,2,4-triazole-3,5-diamine]", "IC50": "1000 to 10000"}
{"smiles": "Nc1nc(Nc2ccc(N3CCN(C4CCCC4)CC3)c(F)c2)nn1-c1nc2ccccc2c2ccccc12", "note": "[Compound 192, 1-(phenanthridin-6-yl)-N^3-(3-fluoro-4-(4-cyclopentylpiperazin-1-yl)phenyl)-1H-1,2,4-triazole-3,5-diamine]", "IC50": "< 1000"}
{"smiles": "Cc1csc2c(-n3nc(Nc4ccc(N5CCN(C6CC7CCC6C7)CC5)c(F)c4)nc3N)ncnc12", "note": "(stereo not drawn) [Compound 194]", "IC50": "< 1000"}
{"smiles": "Nc1nc(Nc2ccc(N3CCN(C4CC5CCC4C5)CC3)c(F)c2)nn1-c1ncnc2ccsc12", "note": "(stereo not drawn) [Compound 195, 1-(thieno[3,2-d]pyrimdin-4-yl)-N^3-(3-fluoro-4-(4-(bicyclo[2.2.1]heptan-2-yl)-piperazin-1-yl)phenyl)-1H-1,2,4-triazole-3,5-diamine]", "IC50": "< 1000"}
{"smiles": "Nc1nc(Nc2ccc(N3CCN(C4CC5CCC4C5)CC3)c(F)c2)nn1-c1ncnc2sccc12", "note": "(stereo not drawn) [Compound 196, 1-(thieno[2,3-d]pyrimidin-4-yl)-N^3-(3-fluoro-4-(4-(bicyclo[2.2.1]heptan-2-yl)-piperazin-1-yl)phenyl)-1H-1,2,4-triazole-3,5-diamine]", "IC50": "< 1000"}
{"smiles": "Nc1nc(Nc2ccc(N3CCN(C4CC5CCC4C5)CC3)c(F)c2)nn1-c1ncnc2ccc(F)cc12", "note": "(stereo not drawn) [Compound 197, 1-(6-fluoroquinazolin-4-yl)-N^3-(3-fluoro-4-(4-(bicyclo[2.2.1]heptan-2-yl)-piperazin-1-yl)phenyl)-1H-1,2,4-triazole-3,5-diamine]", "IC50": "< 1000"}
{"smiles": "Cc1nnc(-n2nc(Nc3ccc(N4CCN(C5CC6CCC5C6)CC4)cc3)nc2N)c2sccc12", "note": "(stereo not drawn) [Compound 198, 1-(4-methylthieno[3,2-d]pyridazin-7-yl)-N^3-(4-(4-(bicyclo[2.2.1]heptan-2-yl)-piperazin-1-yl)phenyl)-1H-1,2,4-triazole-3,5-diamine]", "IC50": "< 1000"}
{"smiles": "Cc1cc(Nc2nc(N)n(-c3ncnc4c(C)csc34)n2)ccc1N1CCN(C2CC3CCC2C3)CC1", "note": "(stereo not drawn) [Compound 199, 1-(7-methylthieno[3,2-d]pyrimidin-4-yl)-N^3-(3-methyl-4-(4-(bicyclo[2.2.1]heptan-2-yl)-piperazin-1-yl)phenyl)-1H-1,2,4-triazole-3,5-diamine]", "IC50": "< 1000"}
{"smiles": "Cc1cc(N2CCN(C3CC4CCC3C4)CC2)ccc1Nc1nc(N)n(-c2nc(Cl)nc3c(C)csc23)n1", "note": "(stereo not drawn) [Compound 200, 1-(7-methyl-2-chlorothieno[3,2-d]pyrimidin-4-yl)-N^3-(2-methyl-4-(4-(bicyclo[2.2.1]heptan-2-yl)-piperazin-1-yl)phenyl)-1H-1,2,4-triazole-3,5-diamine]", "IC50": "1000 to 10000"}
{"smiles": "Cc1csc2c(-n3nc(Nc4ccc(N5CCN([C@H]6C[C@@H]7CC[C@H]6C7)CC5)c(F)c4)nc3N)ncnc12", "note": "[Compound 201, 1-(7-methylthieno[3,2-d]pyrimidin-4-yl)-N^3-(3-fluoro-4-(4-((1S,2S,4R)-bicyclo[2.2.1]heptan-2-yl)-piperazin-1-yl)phenyl)-1H-1,2,4-triazole-3,5-diamine]", "IC50": "< 1000"}
{"smiles": "Cc1cc(N2CCN(C3CC4CCC3C4)CC2)ccc1Nc1nc(N)n(-c2ncnc3c(C)csc23)n1", "note": "(stereo not drawn) [Compound 202, 1-(7-methylthieno[3,2-d]pyrimidin-4-yl)-N^3-(2-methyl-4-(4-(bicyclo[2.2.1]heptan-2-yl)-piperazin-1-yl)phenyl)-1H-1,2,4-triazole-3,5-diamine]", "IC50": "< 1000"}
{"smiles": "Cc1nnc(-n2nc(Nc3ccc(N4CCN(C5CC6CCC5C6)CC4)c(F)c3)nc2N)c2sccc12", "note": "(stereo not drawn) [Compound 203, 1-(4-methylthieno[3,2-d]pyridazin-7-yl)-N^3-(3-fluoro-4-(4-(bicyclo[2.2.1]heptan-2-yl)-piperazin-1-yl)phenyl)-1H-1,2,4-triazole-3,5-diamine]", "IC50": "< 1000"}
